Assay results published in patent US4956363A, “Treatment of cognitive and behavioral disorders associated with aging and with dementia syndromes” (U C B S.A., priority 1988, dated 1990).

Assays:
male NMRI mice = assay: Toxicity, Irwin's test; assay type: in vivo
Experimental: Progressive doses of the compound to be tested are administered intraperitoneally to groups of three mice until the lethal dose is reached (dose which causes the death of two animals out of three within 48 hours).

[1] = test system: amnesia induced by scopolamine; assay: Multiple-trial passive avoidance: mnemic retention (amnesia induced by scopolamine); conditions: compound i.p. at the dose of the line + scopolamine 0.5 mg i.p.
Experimental: To this end, the method of multiple-trial passive avoidance has been used. This method is well-known for evaluating the effects which a product exerts on the memory and learning (A. FINE et al., Proc. Natl. Acad. Sci. U.S.A., 82, (1985), 5227-5230).
The test is carried out on male Sprague-Dawley rats (160-200 g). which are kept in standard cages throughout the experiment.
The apparatus used is a transparent square cage with 35 cm sides and 25 cm high, fitted with a grid floor which can be electrified. An insulating rubber mat (10×17 cm) is placed on the floor in one of the corners of the cage.
Each animal is subjected to four tests at times 0, 4, 24 and 28 hours. In the first test (time 0), the animal is placed on the rubber mat and the time which it takes to decide to leave this position to explore the cage is recorded. After 20 seconds of exploration, the rat receives an electric shock (3 seconds duration) in the paws, causing a flight reaction. The rat is immediately removed from the apparatus and replaced in its original cage. In the course of the three subsequent tests (times: 4, 24 and 28 hours), the animal is replaced on the rubber mat and the time taken to leave this position is recorded. When the four paws of the animal rest on the grid, it receives an electric shock and is immediately removed from the apparatus.
At the start of the experiment, the rats are divided into 4 homogeneous groups of 15 animals. Thirty minutes before each test, each group of animals is subjected to a predetermined treatment:
Groups 1 and 2 are used in the first experiment and groups 3 and 4 are used in the second experiment.
The differences observed are analyzed statistically by the Mann-Whitney method.

[2] = test system: learning of the avoidance reflex; assay: Multiple-trial passive avoidance: learning; assay type: in vivo, rats (male Sprague-Dawley); conditions: i.p. at the dose (mg/kg) of the line in Table V, 30 min before test; criterion 180 seconds on the mat
Experimental: To evaluate whether a compound can promote learning, the following test is carried out.
This experiment is repeated until the animal remains on the rubber mat for at least 180 seconds in order to avoid the electric shock. The learning is expressed by the average number of trials needed to reach a period of 180 seconds remaining on the mat.
A period of remaining on the rubber mat of 180 seconds is regarded as being the maximum performance which can be realized by the animal to avoid the electric shock. Rats which remain on the mat for this period have acquired the avoidance reflex and are replaced in their original cage without receiving the electric shock.
group 1 receives an intraperitoneal injection of physiological salt solution:
group 2 receives an intraperitoneal injection of the compound to be tested:
Columns 3 and 4 show the results obtained in the test used to evaluate the learning. The figures indicate the average number of trials needed for a control animal (group 1) or an animal treated (group 2) with the compound to learn to remain on the rubber mat for 180 seconds in order to avoid the electric shock. The results were analyzed by the Student test.

[3] = mice, i.p., death of two animals out of three within 48 hours

CCCc1nc(NN(C)C)nc(N2CCOCC2)n1
Lethal dose (male NMRI mice; [3]): 799 mg/kg
Period of remaining on the mat, group 4, 4 hours [1]: 55.3 s
Period of remaining on the mat, group 4, 24 hours [1]: 57.7 s
Period of remaining on the mat, group 4, 28 hours [1]: 87.9 s
Learning, average number of trials (group 2) [2]: 1.53

CCCc1nc(N2CCOCC2)nc(N(C)C(=O)C(C)C)n1
Lethal dose (male NMRI mice; [3]): 922 mg/kg

CCCc1nc(NC(=O)c2ccc(C)cc2)nc(N2CCOCC2)n1 [Compound 33]
Lethal dose (male NMRI mice; [3]): 1132 mg/kg

CCCc1nc(NO)nc(N2CCOCC2)n1 [Compound 2, 2-(hydroxyamino)-4-morpholino-6-propyl-1,3,5-triazine]
Lethal dose (male NMRI mice; [3]): 718 mg/kg

CCCc1nc(NCCOC)nc(N2CCOCC2)n1 [Compound 10, 2-[(2-methoxyethyl)amino]-4-morpholino-6-propyl-1,3,5-triazine]
Lethal dose (male NMRI mice; [3]): 844 mg/kg
Period of remaining on the mat, group 4, 4 hours [1]: 15.7 s
Period of remaining on the mat, group 4, 24 hours [1]: 31.1 s
Period of remaining on the mat, group 4, 28 hours [1]: 34.1 s
Learning, average number of trials (group 2) [2]: 2.07

CCCc1nc(NC(=O)c2ccccc2)nc(N2CCOCC2)n1.Cl
Lethal dose (male NMRI mice; mouse, in vivo, ip): 1091 mg/kg
Period of remaining on the mat, group 4, 4 hours [1]: 70.9 s
Period of remaining on the mat, group 4, 24 hours [1]: 82.8 s
Period of remaining on the mat, group 4, 28 hours [1]: 137.6 s
Learning, average number of trials (group 2) [2]: 1.0

CCCc1nc(NC(CO)C(O)c2ccccc2)nc(N2CCOCC2)n1 (stereo not drawn) [Compound 15]
Lethal dose (male NMRI mice; [3]): 1121 mg/kg

CCCc1nc(N2CCOCC2)nc(N(C)C(=O)c2ccc(C)cc2)n1 [Compound 34]
Lethal dose (male NMRI mice; [3]): 1174 mg/kg

CCCc1nc(NC[C@@H](C)O)nc(N2CCOCC2)n1 [Compound 17, (R)-3-[(4-morpholino-6-propyl-1,3.5-triazin-2-yl)amino]-2-propanol]
Lethal dose (male NMRI mice; [3]): 844 mg/kg

CCCc1nc(NCCOC(C)=O)nc(N2CCOCC2)n1
Lethal dose (male NMRI mice; [3]): 928 mg/kg
Period of remaining on the mat, group 4, 24 hours [1]: 44.4 s
Period of remaining on the mat, group 4, 28 hours [1]: 49.9 s
Learning, average number of trials (group 2) [2]: 1.3

CCCc1nc(NCCCO)nc(N2CCOCC2)n1 [Compound 3]
Lethal dose (male NMRI mice; [3]): 844 mg/kg

CCCc1nc(N2CCOCC2)nc(N(CCO)Cc2ccccc2)n1 [Compound 14]
Lethal dose (male NMRI mice; [3]): > 1073 mg/kg

CCCc1nc(NC(=O)N(C)C)nc(N2CCOCC2)n1 [Compound 41, N,N-Dimethyl-N'-(4-morpholino-6-propyl-1,3,5-triazin-2-yl)-urea]
Lethal dose (male NMRI mice; [3]): 294 mg/kg
Period of remaining on the mat, group 4, 4 hours [1]: 15.8 s
Period of remaining on the mat, group 4, 24 hours [1]: 27.3 s
Period of remaining on the mat, group 4, 28 hours [1]: 66.3 s
Learning, average number of trials (group 2) [2]: 1.33

CCCc1nc(NCCOC(N)=O)nc(N2CCOCC2)n1 [Compound 42, 2-[[2-[(Aminocarbonyl)oxy]ethyl]amino]-4-morpholino-6-propyl-1,3,5-triazine]
Lethal dose (male NMRI mice; [3]): > 931 mg/kg

CCCc1nc(NCCCCO)nc(N2CCOCC2)n1 [Compound 4]
Lethal dose (male NMRI mice; [3]): 886 mg/kg

CCCc1nc(NC(C)=O)nc(N2CCOCC2)n1 [listing 1 of 2 here]
Lethal dose (male NMRI mice; [3]): 996 mg/kg
Period of remaining on the mat, group 4, 4 hours [1]: 60.4 s
Period of remaining on the mat, group 4, 24 hours [1]: 74.6 s
Period of remaining on the mat, group 4, 28 hours [1]: 102.4 s
Learning, average number of trials (group 2) [2]: 1.53

CCCc1nc(NC(=O)c2ccc(OC)cc2)nc(N2CCOCC2)n1 [Compound 31]
Lethal dose (male NMRI mice; [3]): 511 mg/kg

CCCc1nc(NC(CO)(CO)CO)nc(N2CCOCC2)n1 [Compound 12]
Lethal dose (male NMRI mice; [3]): 982 mg/kg

CCCc1nc(NC[C@H](C)O)nc(N2CCOCC2)n1 [Compound 16, (S)-3-[(4-morpholino-6-propyl-1,3,5-triazin-2-yl)amino]-2-propanol]
Lethal dose (male NMRI mice; [3]): 844 mg/kg

CCCc1nc(NC(=O)c2ccc(Cl)cc2)nc(N2CCOCC2)n1 [Compound 29]
Lethal dose (male NMRI mice; [3]): 398 mg/kg

CCCc1nc(NCCOC(=O)Cc2ccccc2)nc(N2CCOCC2)n1 [Compound 40]
Lethal dose (male NMRI mice; [3]): 1157 mg/kg

CCCc1nc(N2CCOCC2)nc(N(C)C(C)=O)n1 [listing 1 of 2 here]
Lethal dose (male NMRI mice; [3]): 838 mg/kg
Period of remaining on the mat, group 4, 24 hours [1]: 34.7 s
Period of remaining on the mat, group 4, 28 hours [1]: 44.5 s
Learning, average number of trials (group 2) [2]: 2.07

CCCc1nc(NC(=O)c2ccc(C)c(C)c2)nc(N2CCOCC2)n1 [Compound 36]
Lethal dose (male NMRI mice; [3]): 1174 mg/kg

CCCc1nc(NCC2(O)CCCCC2)nc(N2CCOCC2)n1 [Compound 18]
Lethal dose (male NMRI mice; [3]): 1007 mg/kg

CCCc1nc(NCCOC(=O)C(C)C)nc(N2CCOCC2)n1 [Compound 38]
Lethal dose (male NMRI mice; [3]): > 1012 mg/kg

CCCc1nc(N2CCOCC2)nc(N(C)C(C)=O)n1 [listing 2 of 2 here]
Lethal dose (male NMRI mice; [3]): 947 mg/kg

CCCc1nc(NCC(C)O)nc(N2CCOCC2)n1 (stereo not drawn) [Compound 5]
Lethal dose (male NMRI mice; [3]): 563 mg/kg

CCCc1nc(NC(CC)CO)nc(N2CCOCC2)n1 (stereo not drawn)
Lethal dose (male NMRI mice; [3]): 886 mg/kg
Period of remaining on the mat, group 4, 24 hours [1]: 22.5 s
Period of remaining on the mat, group 4, 28 hours [1]: 52.1 s
Learning, average number of trials (group 2) [2]: 2.57

CCCc1nc(N2CCOCC2)nc(N(C)C(=O)c2ccc(OC)c(OC)c2)n1 [Compound 35]
Lethal dose (male NMRI mice; [3]): 401 mg/kg

CCCc1nc(NC(C)(CO)CO)nc(N2CCOCC2)n1 [Compound 13]
Lethal dose (male NMRI mice; [3]): 934 mg/kg

CCCc1nc(NC(=O)Oc2ccccc2)nc(N2CCOCC2)n1 [Compound 28, phenyl (4-morpholino-6-propyl-1,3,5-triazin-2-yl)carbamate]
Lethal dose (male NMRI mice; [3]): > 1030 mg/kg

CCCc1nc(NC(C)=O)nc(N2CCOCC2)n1 [listing 2 of 2 here]
Lethal dose (male NMRI mice; [3]): 905 mg/kg

CCCc1nc(NC(C)(C)CO)nc(N2CCOCC2)n1 [Compound 8]
Lethal dose (male NMRI mice; [3]): 886 mg/kg

CCCc1nc(N(C)CCO)nc(N2CCOCC2)n1
Lethal dose (male NMRI mice; [3]): 844 mg/kg
Period of remaining on the mat, group 4, 4 hours [1]: 67.9 s
Period of remaining on the mat, group 4, 24 hours [1]: 62.7 s
Period of remaining on the mat, group 4, 28 hours [1]: 160.3 s
Learning, average number of trials (group 2) [2]: 2.0

CCCc1nc(NCC(O)CO)nc(N2CCOCC2)n1 (stereo not drawn) [Compound 11]
Lethal dose (male NMRI mice; [3]): 892 mg/kg

CCCc1nc(NCCO)nc(N2CCOCC2)n1
Lethal dose (male NMRI mice; [3]): 802 mg/kg
Period of remaining on the mat, group 4, 4 hours [1]: 44.8 s
Period of remaining on the mat, group 4, 24 hours [1]: 61.3 s
Period of remaining on the mat, group 4, 28 hours [1]: 102.7 s
Learning, average number of trials (group 2) [2]: 1.53

CCCc1nc(NC(=O)Cc2ccccc2)nc(N2CCOCC2)n1 [Compound 23]
Lethal dose (male NMRI mice; [3]): > 1024 mg/kg

CCCc1nc(N2CCOCC2)nc(N(C)C(=O)c2ccccc2)n1.Cl
Lethal dose (male NMRI mice; mouse, in vivo, ip): 1133 mg/kg
Period of remaining on the mat, group 4, time 0 ([1]; 0 h): 11.3 s
Period of remaining on the mat, group 4, 4 hours [1]: 88.6 s
Period of remaining on the mat, group 4, 24 hours [1]: 111.5 s
Period of remaining on the mat, group 4, 28 hours [1]: 133.5 s
Learning, average number of trials (group 2) [2]: 1.13

CCCc1nc(N2CCOCC2)nc(N(C)C(=O)c2ccc(Cl)cc2)n1 [Compound 30]
Lethal dose (male NMRI mice; [3]): 1125 mg/kg

CCCc1nc(NCCOC(=O)c2ccccc2)nc(N2CCOCC2)n1 [Compound 39]
Lethal dose (male NMRI mice; [3]): > 1114 mg/kg

CCCc1nc(NCC(O)CC)nc(N2CCOCC2)n1 (stereo not drawn) [Compound 6]
Lethal dose (male NMRI mice; [3]): 886 mg/kg

CCCc1nc(N2CCOCC2)nc(N(CCOC(C)=O)C(C)=O)n1
Lethal dose (male NMRI mice; [3]): 351 mg/kg

CCCc1nc(N2CCOCC2)nc(N2CCCC2CO)n1 (stereo not drawn) [Compound 19]
Lethal dose (male NMRI mice; [3]): 1031 mg/kg

CCCc1nc(NC(=O)C(C)C)nc(N2CCOCC2)n1 [Compound 24]
Lethal dose (male NMRI mice; [3]): 880 mg/kg

CCCc1nc(N2CCOCC2)nc(N(C)C(=O)c2ccc(OC)cc2)n1 [Compound 32]
Lethal dose (male NMRI mice; [3]): 1222 mg/kg
